Data: patent publication US20220135567A1, “TYK2 PSEUDOKINASE LIGANDS” (Ventyx Biosciences, Inc., priority 2019, published 2022)

What follows are molecules tested on IFN-a/Jak1Tyk2 (assay: Co-stimulation assay in lysed whole blood: IFNa (JAK1/TYK2) stimulated STAT1 phosphorylation). Details: 20 min, lysed human whole blood, IFNa 100 ng/mL + GM-CSF 10 ng/mL, pSTAT1 by flow cytometry.
Type: cell-based
Summary of the method: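 Red-cell-lysed human whole blood, pretreated with compound for 1 h at 37°C, was stimulated 20 min at 37°C with IFNa (100 ng/mL final) plus GM-CSF (10 ng/mL final). Cells were then fixed/lysed, permeabilised in Perm Buffer III and stained overnight for pSTAT1 (PE) and pSTAT5. Read-out by flow cytometry.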

Structure (SMILES)	IC50 [µM]
[2H]C([2H])([2H])n1cccc(Nc2cc(NC)n3ncc(C(=O)NC4CCC4)c3n2)c1=O [Compound 93, N-cyclobutyl-5-((1-(methyl-d3)-2-oxo-1,2-dihydropyridin-3-yl)amino)-7-(methylamino)pyrazolo[1,5-a]pyrimidine-3-carboxamide]	< 0.1
CNc1cc(Nc2cccc(N3CCN(C)CC3)c2)nc2c(C(=O)NC3CC3)cnn12 [Compound 51, N-cyclopropyl-7-(methylamino)-5-((3-(4-methylpiperazin-1-yl)phenyl)amino)pyrazolo[1,5-a]pyrimidine-3-carboxamide]	< 0.1
[2H]C([2H])([2H])Nc1cc(Nc2cc(F)cc3c2OCCO3)nc2c(C(N)=O)cnn12 [Compound 76, 5-((7-fluoro-2,3-dihydrobenzo[b][1,4]dioxin-5-yl)amino)-7-((methyl-d3)amino)pyrazolo[1,5-a]pyrimidine-3-carboxamide]	< 0.1
CNc1cc(Nc2cccc3c2OCCO3)nc2c(C(=O)NC3CC3)cnn12 [Compound 20, N-cyclopropyl-5-((2,3-dihydrobenzo[b][1,4]dioxin-5-yl)amino)-7-(methylamino)pyrazolo[1,5-a]pyrimidine-3-carboxamide]	< 0.1
CNc1cc(Nc2cccn(-c3ccc(OC)nn3)c2=O)nc2c(C(=O)NCC(C)(C)CO)cnn12 [Compound 66, N-(3-hydroxy-2,2-dimethylpropyl)-5-((1-(6-methoxypyridazin-3-yl)-2-oxo-1,2-dihydropyridin-3-yl)amino)-7-(methylamino)pyrazolo[1,5-a]pyrimidine-3-carboxamide]	0.1 to 1
CNc1cc(Nc2cnn(CCOC)c2)nc2c(C(=O)NC3CC3)cnn12 [Compound 47, N-cyclopropyl-5-((1-(2-methoxyethyl)-1H-pyrazol-4-yl)amino)-7-(methylamino)pyrazolo[1,5-a]pyrimidine-3-carboxamide]	> 0.3
CNc1cc(Nc2cscc2C(=O)O)nc2c(C(=O)NC3CC3)cnn12 [Compound 36, 4-((3-(cyclopropylcarbamoyl)-7-(methylamino)pyrazolo[1,5-a]pyrimidin-5-yl)amino)thiophene-3-carboxylic acid]	> 0.3
CNc1cc(Nc2cc(F)cc3c2OCCO3)nc2c(C(=O)NCC(C)(C)CO)cnn12 [Compound 109, 5-((7-fluoro-2,3-dihydrobenzo[b][1,4]dioxin-5-yl)amino)-N-(3-hydroxy-2,2-dimethylpropyl)-7-(methylamino)pyrazolo[1,5-a]pyrimidine-3-carboxamide]	< 0.1
[2H]C([2H])([2H])n1cccc(Nc2cc(NC)n3ncc(C(=O)N[C@H]4C[C@H]4F)c3n2)c1=O [Compound 83, N-((1S,2R)-2-fluorocyclopropyl)-5-((1-(methyl-d3)-2-oxo-1,2-dihydropyridin-3-yl)amino)-7-(methylamino)pyrazolo[1,5-a]pyrimidine-3-carboxamide]	0.1 to 1
CNc1cc(Nc2ccnn2CCO)nc2c(C(=O)NC3CC3)cnn12 [Compound 69, N-cyclopropyl-5-((1-(2-hydroxyethyl)-1H-pyrazol-5-yl)amino)-7-(methylamino)pyrazolo[1,5-a]pyrimidine-3-carboxamide]	1 to 10
CNc1cc(Nc2cccn(-c3ccnc(C)n3)c2=O)nc2c(C(=O)NC3CCC3)cnn12 [Compound 110, N-cyclobutyl-7-(methylamino)-5-((1-(2-methylpyrimidin-4-yl)-2-oxo-1,2-dihydropyridin-3-yl)amino)pyrazolo[1,5-a]pyrimidine-3-carboxamide]	< 0.1
CNc1cc(Nc2cccc3c2OCCO3)nc2c(C(=O)NC3(C#N)CC3)cnn12 [Compound 95, N-(1-cyanocyclopropyl)-5-((2,3-dihydrobenzo[b][1,4]dioxin-5-yl)amino)-7-(methylamino)pyrazolo[1,5-a]pyrimidine-3-carboxamide]	< 0.1
CNc1cc(Nc2cccn(-c3ccccn3)c2=O)nc2c(C(=O)N[C@H]3C[C@H]3F)cnn12 [Compound 115, N-((1S,2R)-2-fluorocyclopropyl)-7-(methylamino)-5-((2-oxo-2H-[1,2′-bipyridin]-3-yl)amino)pyrazolo[1,5-a]pyrimidine-3-carboxamide]	< 0.1
CNc1cc(Nc2cccn(C)c2=O)nc2c(C(=O)NC3CC(O)C3)cnn12 (centres unmarked) [Compound 86, N-(3-hydroxycyclobutyl)-5-((1-methyl-2-oxo-1,2-dihydropyridin-3-yl)amino)-7-(methylamino)pyrazolo[1,5-a]pyrimidine-3-carboxamide]	> 3
[2H]C([2H])([2H])NC(=O)c1cnn2c(NC([2H])([2H])[2H])cc(Nc3cc(F)cc4c3OCCO4)nc12 [Compound 78, 5-((7-fluoro-2,3-dihydrobenzo[b][1,4]dioxin-5-yl)amino)-N-(methyl-d3)-7-((methyl-d3)amino)pyrazolo[1,5-a]pyrimidine-3-carboxamide]	0.1 to 1
CNC(=O)c1nscc1Nc1cc(NC)n2ncc(C(=O)NC3CC3)c2n1 [Compound 43, 4-((3-(cyclopropylcarbamoyl)-7-(methylamino)pyrazolo[1,5-a]pyrimidin-5-yl)amino)-N-methylisothiazole-3-carboxamide]	< 0.1
CNc1cc(Nc2cccn(-c3ccc(OC)nn3)c2=O)nc2c(C(=O)NCC(C)(C)O)cnn12 [Compound 103, N-(2-hydroxy-2-methylpropyl)-5-((1-(6-methoxypyridazin-3-yl)-2-oxo-1,2-dihydropyridin-3-yl)amino)-7-(methylamino)pyrazolo[1,5-a]pyrimidine-3-carboxamide]	1 to 10
CNc1cc(Nc2cc(F)cc(F)c2OC)nc2c(C(N)=O)cnn12 [Compound 74, 5-((3,5-difluoro-2-methoxyphenyl)amino)-7-(methylamino)pyrazolo[1,5-a]pyrimidine-3-carboxamide]	> 0.3
CNc1cc(Nc2ccccc2-n2cccn2)nc2c(C(=O)NC3CC3)cnn12 [Compound 34, 5-((2-(1H-pyrazol-1-yl)phenyl)amino)-N-cyclopropyl-7-(methylamino)pyrazolo[1,5-a]pyrimidine-3-carboxamide]	> 0.3
CNc1cc(Nc2ccccc2OC(F)(F)F)nc2c(C(=O)NC3CC3)cnn12 [Compound 54, N-cyclopropyl-7-(methylamino)-5-((2-(trifluoromethoxy)phenyl)amino) pyrazolo[1,5-a]pyrimidine-3-carboxamide]	0.1 to 1
CNc1cc(Nc2ccn(CC(F)(F)F)n2)nc2c(C(=O)NC3CC3)cnn12 [Compound 64, N-cyclopropyl-7-(methylamino)-5-((1-(2,2,2-trifluoroethyl)-1H-pyrazol-3-yl)amino)pyrazolo[1,5-a]pyrimidine-3-carboxamide]	> 0.3
CNc1cc(Nc2ccccc2OC)nc2c(C(=O)NCC(C)(C)CO)cnn12 [Compound 22, N-(3-hydroxy-2,2-dimethylpropyl)-5-((2-methoxyphenyl)amino)-7-(methylamino)pyrazolo[1,5-a]pyrimidine-3-carboxamide]	< 0.1
CNC(=O)c1cscc1Nc1cc(NC)n2ncc(C(=O)NC3CC3)c2n1 [Compound 44, N-cyclopropyl-7-(methylamino)-5-((4-(methylcarbamoyl)thiophen-3-yl)amino)pyrazolo[1,5-a]pyrimidine-3-carboxamide]	0.1 to 1
CNc1cc(Nc2cccc3c2CCCO3)nc2c(C(=O)NC3CC3)cnn12 [Compound 82, 5-(chroman-5-ylamino)-N-cyclopropyl-7-(methylamino)pyrazolo[1,5-a]pyrimidine-3-carboxamide]	0.1 to 1
CNc1cc(Nc2cc(F)cc(F)c2OC)nc2c(C(=O)NC3CC3F)cnn12 (centres unmarked) [Compound 73, 5-((3,5-difluoro-2-methoxyphenyl)amino)-N-(2-fluorocyclopropyl)-7-(methylamino)pyrazolo[1,5-a]pyrimidine-3-carboxamide]	< 0.1
CNc1cc(Nc2cccc3c2OCCO3)nc2c(C(=O)NC3CC(C)(O)C3)cnn12 (centres unmarked) [Compound 75, 5-((2,3-dihydrobenzo[b][1,4]dioxin-5-yl)amino)-N-(3-hydroxy-3-methylcyclobutyl)-7-(methylamino)pyrazolo[1,5-a]pyrimidine-3-carboxamide]	< 0.1
